Measured values: PMC9044058 (The Journal of General Physiology, 2022)
“And” between values parts separate entries of the source, which are not always exact repeats. Identical values can stand only once. Like-named read-outs stand apart in the source and are kept apart here. One block for each molecule: values may come before it.

How the values were obtained:
[1] = test system: GltPh Y317F; parameters: method as in Riederer and Valiyaveetil, 2019; settings: ref Riederer and Valiyaveetil, 2019; cited from earlier work
[2] = molecular target: T1, P-GltPh (S279E/D405N) (Pyrococcus horikoshii, UniProt O59010, D37H/D405N/E368H/K125H/K132H/K223H/K264H/K40H/S279E); format: binding; settings: for n1 / n2: single trials; for % n2 / ΔS1: trials and avg (mean ± SD); for fitted OFS2 fraction: L-Asp ITC, 500 mM sodium salt
T1 construct: (His)8 behind a thrombin cleavage site (C, cleaved yes); made in house; host or cells: Escherichia coli DH10B
Description: (§1) Proteins were immediately concentrated to >5 mg/ml and diluted 2.5-fold to a final concentration of 30–50 µM. When diluted, the sample was supplemented with a final concentration of 1 mM DDM, 58 mM HEPES/KOH, pH 7.4, and an appropriate amount of sodium salt. 350 μl of protein samples was degassed and equilibrated to the temperature of the experiment, and ∼300 μl was loaded into the reaction cell of a small-volume NanoITC (TA Instruments), or in the case of TFB-TBOA experiments, an Affinity Auto ITC (TA Instruments). […] 2 μl of titrant was injected every 5–6 min, at a constant temperature and a stirring rate of 250 rpm (125 rpm for TFB-TBOA experiments). Injection heats measured after protein was saturated with the ligand were used to determine the dilution heats subtracted from the ligand binding heats. Data were analyzed using NanoAnalyze software (TA Instruments) applying either the “independent” or “multiple sites” (referred to as “single-state” and “two-state,” respectively, throughout the text) binding models. […] The fraction of total protein bound is given by the following: [PS]/[P]=n1K1[S]/1+K1[S]+n2K2[S]/1+K2[S], where ni is the apparent number of sites per protein molecule.

[3] = test system: D390A mutant; parameters: method as in Riederer and Valiyaveetil, 2019; settings: ref Riederer and Valiyaveetil, 2019; cited from earlier work
[4] = test system: liposome-reconstituted GltPh; parameters: method as in Hall et al., 2020; settings: ref Hall et al., 2020; cited from earlier work
[5] = molecular target: T2, WT GltPh (Pyrococcus horikoshii, UniProt O59010, D37H/E368H/K125H/K132H/K223H/K264H/K40H); test: ITC of L-Asp and TFB-TBOA binding to WT GltPh
T2 construct: (His)8 behind a thrombin cleavage site (C, cleaved yes); made in house; host or cells: Escherichia coli DH10B
Description: as §1
For the TFB-TBOA competition experiments, protein was first titrated with TBOA to saturation. Then, the concentration of TFB-TBOA was increased to a final concentration of 150 μM of TFB-TBOA, so that the overflow protein was also saturated.

[6] = molecular target: T3, GltPh (C321A/N378C) (Pyrococcus horikoshii, UniProt O59010, C321A/D37H/E368H/K125H/K132H/K223H/K264H/K40H/N378C); format: biochemical; settings: 200 mM sodium salt, 1 μM valinomycin, 1 μM L-Asp; triexponential fit; means and SEM
T3 construct: (His)8 behind a thrombin cleavage site (C, cleaved yes); made in house; host or cells: Escherichia coli DH10B
Description: Liposomes were prepared from a 3:1 (wt/wt) mixture of E. coli polar lipid extract (Avanti Polar Lipids) and egg phosphatidylcholine in SM-KCl buffer (50 mM HEPES/Tris, pH 7.4, and 200 mM KCl). Liposomes were extruded through 400-nm filters (Whatman Nucleopore) using a syringe extruder (Avanti), and destabilized by the addition of Triton X-100 at 1:2 (wt/wt) detergent-to-lipid ratio. Labeled GltPh was added to the liposome suspension at 1:1,000 (wt/wt) protein-to-lipid ratio at room temperature for 30 min. Detergent was removed by six rounds incubation of Bio-Beads (two rounds at 23°C for 2 h each, one round at 4°C overnight, and three rounds at 4°C for 2 h each). The excess substrate was removed by three rounds of centrifugation for 1 h at 49,192 g at 4°C, removal of the supernatant, addition of 1 ml fresh SM buffer, and three freeze/thaw cycles. Liposomes were concentrated to 50 mg/ml, and ccPEB1a-Y198F labeled with activated LD555P-MAL and LD655-MAL dyes as described ([Ciftci et al., 2020]) was added at a final concentration of 0.6 μM and encapsulated by two freeze–thaw cycles. To remove unencapsulated ccPEB1a-Y198F, 1 ml of SM-KCl buffer was added, and liposomes were centrifuged for 1 h at 49.192 g at 4°C. […]
Buffers were supplemented with an oxygen-scavenging system as above, and the smFRET movies were recorded with 400-ms integration time using 20–40-mW laser power. […]
Traces were analyzed using Spartan software ([Juette et al., 2016]). […] Traces with multiple photobleaching events (indicative of multiple sensors in a liposome) or inconsistent total fluorescence intensity were also discarded. Remaining traces were sorted by either the presence or absence of observable transport events (responding and nonresponding traces, respectively), determined by an increase in FRET efficiency from ∼0.55–0.6 to ∼0.75–0.8.
Responding traces from each video were plotted as time-dependent mean FRET efficiency. Buffer replacement time was determined as described ([Ciftci et al., 2020]). […]

[7] = test system: GltPh; parameters: method as in earlier work; settings: OFS over IFS; ref Mcilwain et al., 2016; Boudker et al., 2007; Wang and Boudker, 2020; cited from earlier work
[8] = molecular target: P-GltPh (S279E/D405N) (UniProt O59010); test: cryo-EM structure; P-GltPh in 0.8 mM DDM, 20 mM HEPES/Tris pH 7.4, 250 mM NaNO3, 1 mM L-Asp; C3 symmetry imposed, then symmetry expansion and focused classification of single protomers; Data S2 (L-Asp present throughout purification) and Data S1 (L-Asp added ~5 s before freezing)
[9] = 500 mM NaCl, 10°C and 15°C, n = 6
[10] = 10°C, 500 mM NaCl, two-state model
[11] = 15°C, 500 mM NaCl, two-state model
[12] = 500 mM Na-gluconate, 15°C, Fit 1
[13] = 500 mM Na-gluconate, 15°C, Fit 2

T2 sequence (O59010 1-417 D37H/K40H/K125H/K132H/K223H/K264H/E368H): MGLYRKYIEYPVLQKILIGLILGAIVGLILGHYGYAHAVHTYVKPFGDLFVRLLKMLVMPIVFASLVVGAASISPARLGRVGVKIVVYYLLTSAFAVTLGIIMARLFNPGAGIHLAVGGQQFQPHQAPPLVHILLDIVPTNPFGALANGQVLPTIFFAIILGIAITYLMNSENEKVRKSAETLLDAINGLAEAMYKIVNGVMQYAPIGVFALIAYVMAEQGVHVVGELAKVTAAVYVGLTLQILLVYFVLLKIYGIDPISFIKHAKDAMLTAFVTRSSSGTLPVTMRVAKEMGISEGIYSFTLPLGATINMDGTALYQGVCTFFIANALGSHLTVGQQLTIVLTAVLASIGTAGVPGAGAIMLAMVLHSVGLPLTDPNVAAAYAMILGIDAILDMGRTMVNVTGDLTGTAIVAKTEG
T3 sequence (O59010 1-417 D37H/K40H/K125H/K132H/K223H/K264H/C321A/E368H/N378C): as the sequence (O59010 1-417 D37H/K40H/K125H/K132H/K223H/K264H/E368H) above, with C321A, N378C counted along it
T1 sequence (O59010 1-417 D37H/K40H/K125H/K132H/K223H/K264H/S279E/E368H/D405N): as the sequence (O59010 1-417 D37H/K40H/K125H/K132H/K223H/K264H/E368H) above, with S279E, D405N counted along it

Molecule: N[C@@H](CC(=O)O)C(=O)O [L-Asp, L-aspartate]
loss of L-Asp affinity [1]: 10 fold | sums of the apparent stoichiometries (n1 and n2 values), average [2, 9]: 0.97 ± 0.26 | sums of the apparent stoichiometries (n1 and n2 values), range [2, 9]: 0.74–1.53 | n1 [2, 10]: 0.61 and 0.64 and 0.78 | n2 [2, 10]: 0.13 and 0.20 and 0.18 | % n2 [2, 10]: 18% and 24% and 19% | ΔS1 [2, 10]: 32.2 cal mol^-1 K^-1 and 40.0 cal mol^-1 K^-1 and 31.1 cal mol^-1 K^-1 | ΔH ([2]; 15°C, 50 mM NaCl, single-state model): -2.3 kcal/mol | ΔH ([2]; 15°C, 500 mM Na-gluconate, two-state model, first state): -2.3 kcal/mol | ΔH ([2]; 15°C, 500 mM Na-gluconate, two-state model, second state): -5.5 kcal/mol | ΔH ([2]; 15°C, 500 mM NaCl, two-state model, first state): -3.3 kcal/mol | ΔH ([2]; 15°C, 500 mM NaCl, two-state model, second state): -7.1 kcal/mol | n1 [2, 11]: 1.13 and 0.64 and 0.63 | n2 [2, 11]: 0.39 and 0.22 and 0.29 | % n2 [2, 11]: 26% and 31% | ΔS1 [2, 11]: 29.4 cal mol^-1 K^-1 and 29.2 cal mol^-1 K^-1 and 31.4 cal mol^-1 K^-1 | ΔH ([2]; 15°C, 500 mM NaNO3, two-state model, first state): -2.1 kcal/mol | ΔH ([2]; 15°C, 500 mM NaNO3, two-state model, second state): -6.5 kcal/mol | ΔH ([2]; 15°C, 1 M NaCl, two-state model, first state): -3.7 kcal/mol | ΔH ([2]; 15°C, 1 M NaCl, two-state model, second state): -8.7 kcal/mol | lower affinity versus GltPh [3]: 1,000 fold | Hill coefficient [4]: 0.69 | n1 [5, 12]: 0.82 | n2 [5, 12]: 0.36 | ΔH1 [5, 12]: -22.7 kcal/mol | ΔH2 [5, 12]: 39.4 kcal/mol | n1 [5, 13]: 0.37 | n2 [5, 13]: 0.89 | ΔH1 [5, 13]: -50.0 kcal/mol | ΔH2 [5, 13]: 16.2 kcal/mol | n1 ([5]; 500 mM Na-gluconate, 35°C): 0.16 | n2 ([5]; 500 mM Na-gluconate, 35°C): 1.30 | ΔH1 ([5]; 500 mM Na-gluconate, 35°C): -24.6 kcal/mol | ΔH2 ([5]; 500 mM Na-gluconate, 35°C): -4.7 kcal/mol | shape of ITC competition isotherms ([5]; GltPh saturated with TFB-TBOA, competed with L-Asp, 15°C): bimodal isotherms

Molecule: O=C([O-])[C@H](O)[C@@H](O)[C@H](O)[C@H](O)CO.[Na+] [Na-gluconate, sodium gluconate]
Slow (%) transporter population [6]: 81.1 ± 3.1%

Molecule: [Cl-].[Na+] [NaCl]
fitted OFS2 fraction ([2]; 10°C): ~20% | fitted OFS2 fraction ([2]; 15°C): ~28% | Slow (%) transporter population [6]: 79.5 ± 3.4%

Molecule: O=[N+]([O-])[O-].[Na+] [NaNO3]
fitted OFS2 fraction ([2]; 15°C): ~38% | Slow (%) transporter population [6]: 87.3 ± 2.2%

Molecule: N[C@H](C(=O)O)[C@H](OCc1cccc(NC(=O)c2ccc(C(F)(F)F)cc2)c1)C(=O)O [TFB-TBOA]
preference for OFS [7]: 100 fold | shape of ITC binding isotherms ([5]; 15°C, 500 mM Na-gluconate, NaCl or NaNO3): bimodal ITC isotherms

stoichiometry N [8]: 3
Molecule: P-GltPh (S279E/D405N) (from UniProt O59010 1-417)
